Assays:
[1] = test system: HTC-C3 (Thyroid Gland Carcinoma); experiment: Bliss excess, mean over the matrix (fraction); higher = more synergy
Summary of the method: (§1)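 Cell lines in DMEM/F12 or RPMI with 10% FBS were plated in 1536-well plates, held 24 hours at 37°C, 5% CO2, then given two-drug dose matrices for 72 hours (DMSO typically 0.2%). Viability was read by CellTiter-Glo 2.0 luminescence and scaled as inhibition from 0 (vehicle wells) to 1 (blank wells). Combination Emax is the second-highest inhibition in the matrix; Bliss excess is observed combination effect minus expected EA + EB − EA·EB, EA and EB being single-agent effects.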

[2] = test system: RT4 (Bladder Carcinoma); experiment: as above
Summary of the method: as §1

[3] = test system: LOUCY (T-Lymphoblastic Leukemia); experiment: combination Emax (second highest fraction inhibited in the dose matrix, 72 h); higher = more inhibition; extreme values may be limits of the assay
Summary of the method: as §1

[4] = test system: HTC-C3 (Thyroid Gland Carcinoma); experiment: as above
Summary of the method: as §1

[5] = test system: NCI-H196 (Small Cell Lung Carcinoma); experiment: as above
Summary of the method: as §1

[6] = test system: Calu-6 (Non-Small Cell Lung Carcinoma); experiment: as above
Summary of the method: as §1

[7] = test system: OV-90 (Ovarian Carcinoma); experiment: as above
Summary of the method: as §1

[8] = test system: RL95-2 (Endometrial Carcinoma); experiment: as above
Summary of the method: as §1

[9] = test system: AN3-CA (Endometrial Carcinoma); experiment: as above
Summary of the method: as §1

[10] = test system: Becker (Low Grade Glioma); experiment: as above
Summary of the method: as §1

[11] = test system: NCI-H1755 (Lung Adenocarcinoma); experiment: as above
Summary of the method: as §1

[12] = test system: NCI-H1155 (Non-Small Cell Lung Carcinoma); experiment: as above
Summary of the method: as §1

[13] = test system: JHH-1 (Hepatocellular Carcinoma); experiment: as above
Summary of the method: as §1

[14] = test system: RT4 (Bladder Carcinoma); experiment: as above
Summary of the method: as §1

[15] = test system: LAMA-84 (Chronic Myelogenous Leukemia); experiment: as above
Summary of the method: as §1

[16] = test system: OCI-AML5 (Acute Myeloid Leukemia); experiment: as above
Summary of the method: as §1

[17] = test system: BALL-1 (B-Lymphoblastic Leukemia); experiment: as above
Summary of the method: as §1

[18] = test system: CHL-1 (Melanoma); experiment: as above
Summary of the method: as §1

[19] = test system: PC-14 (Lung Adenocarcinoma); experiment: as above
Summary of the method: as §1

[20] = test system: CML-T1 (Chronic Myelogenous Leukemia); experiment: as above
Summary of the method: as §1
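Wherever Bliss excess, mean over the matrix is given: after 72 h of two-drug dosing.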

| SMILES | Bliss excess [1] | Bliss excess [2] | combination Emax [3] | combination Emax [4] | combination Emax [5] | combination Emax [6] | combination Emax [7] | combination Emax [8] | combination Emax [9] | combination Emax [10] | combination Emax [11] | combination Emax [12] | combination Emax [13] | combination Emax [14] | combination Emax [15] | combination Emax [16] | combination Emax [17] | combination Emax [18] | combination Emax [19] | combination Emax [20] |
| --- | --- | --- | --- | --- | --- | --- | --- | --- | --- | --- | --- | --- | --- | --- | --- | --- | --- | --- | --- | --- |
| C[C@@H](c1ccc2nccn2c1)n1nnc2ncc(-c3cnn(C)c3)nc21 [Savolitinib] + CC1(C)CCC(CN2CCN(c3ccc(C(=O)NS(=O)(=O)c4ccc(NCC5CCOCC5)c([N+](=O)[O-])c4)c(Oc4cnc5[nH]ccc5c4)c3)CC2)=C(c2ccc(Cl)cc2)C1 [Venetoclax] (first compound max 1 µM, 7x7, partner max 1 µM) | -0.053 | -0.055 | 0.976 | 0.127 | 0.128 | 0.194 | 0.133 | 0.085 | 0.0904 | 0.344 | 0.101 | 0.149 | 0.114 | 0.12 | 0.172 | 0.883 | 1 | 0.118 | 0.177 | 0.279 |
| C[C@@H](c1ccc2nccn2c1)n1nnc2ncc(-c3cnn(C)c3)nc21 [Savolitinib] + Cc1c2c(nn1C)CSCc1cc(n(C)n1)CSc1cc(c3ccccc3c1)OCCCc1c(C(=O)O)n(C)c3c-2c(Cl)ccc13 [AZD5991] (first compound max 1 µM, 7x7, partner max 1 µM) | -0.0373 | 0.0148 | 0.46 | 0.182 | 0.173 | 0.172 | 0.185 | 0.577 | 0.308 | 0.366 | 0.173 | 0.114 | 0.208 | 0.25 | 0.234 | 0.137 | 0.612 | 0.291 | 0.148 | 0.228 |
| Cn1cnc2c(F)c(Nc3ccc(Br)cc3Cl)c(C(=O)NOCCO)cc21 [Selumetinib] + C=CCn1c(=O)c2cnc(Nc3ccc(N4CCN(C)CC4)cc3)nc2n1-c1cccc(C(C)(C)O)n1 [AZD1775] (first compound max 10 µM, partner max 1 µM) | 0.0338 | -0.0127 | 0.977 | 0.691 | 0.347 | 0.855 | 0.628 | 0.587 | 0.354 | 0.309 | 0.776 | 0.342 | 0.599 | 0.368 | 0.973 | 0.944 | 1 | 0.572 | 0.928 | 0.939 |
| Cn1cnc2c(F)c(Nc3ccc(Br)cc3Cl)c(C(=O)NOCCO)cc21 [Selumetinib] + CC(C)n1c(=O)n(C)c2cnc3cc(F)c(-c4ccc(OCCCN5CCCCC5)nc4)cc3c21 [AZD1390] (first compound max 10 µM, 7x7, partner max 0.3 µM) | -0.0092 | -0.0267 | 0.35 | 0.591 | 0.0904 | 0.672 | 0.598 | 0.372 | 0.0572 | 0.235 | 0.235 | 0.23 | 0.252 | 0.257 | 0.926 | 0.9 | 0.24 | 0.0273 | 0.326 | 0.628 |
| Cn1cnc2c(F)c(Nc3ccc(Br)cc3Cl)c(C(=O)NOCCO)cc21 [Selumetinib] + CCN(CCO)CCCOc1ccc2c(Nc3cc(CC(=O)Nc4cccc(F)c4)[nH]n3)ncnc2c1 [AZD2811] (first compound max 10 µM, 7x7, partner max 1 µM) | -0.0228 | -0.0816 | 0.909 | 0.654 | 0.0609 | 0.733 | 0.606 | 0.87 | 0.268 | 0.296 | 0.541 | 0.674 | 0.375 | 0.516 | 0.958 | 1 | 0.477 | 0.257 | 0.587 | 0.765 |
| Cn1cnc2c(F)c(Nc3ccc(Br)cc3Cl)c(C(=O)NOCCO)cc21 [Selumetinib] + C[C@@H]1COCCN1C2=NC(=NC(=C2)C3(CC3)[S@](=N)(=O)C)C4=C5C=CNC5=NC=C4 [AZD6738] (first compound max 10 µM, 7x7, partner max 10 µM) | -0.0072 | -0.0036 | 0.966 | 0.75 | 0.227 | 0.817 | 0.688 | 0.772 | 0.464 | 0.427 | 0.738 | 0.758 | 0.436 | 0.549 | 0.992 | 1 | 1 | 0.772 | 0.829 | 0.977 |
| CC(=O)Nc1cccc(-n2c(=O)n(C3CC3)c(=O)c3c(Nc4ccc(I)cc4F)n(C)c(=O)c(C)c32)c1 [Trametinib] + Cc1nc(-c2cn3c(n2)-c2ccc(-c4cnn(C(C)(C)C(N)=O)c4)cc2OCC3)n(C(C)C)n1 [Taselisib] (first compound max 1 µM, 7x7, partner max 10 µM) | 0.113 | 0.0566 | 0.527 | 0.744 | 0.376 | 0.987 | 0.834 | 0.588 | 0.997 | 0.678 | 0.978 | 0.348 | 1 | 0.734 | 1 | 1 | 0.532 | 0.638 | 1 | 0.465 |
| CC1(C)CCC(CN2CCN(c3ccc(C(=O)NS(=O)(=O)c4ccc(NCC5CCOCC5)c([N+](=O)[O-])c4)c(Oc4cnc5[nH]ccc5c4)c3)CC2)=C(c2ccc(Cl)cc2)C1 [Venetoclax] + C1CN(CCC1(C(=O)N[C@@H](CCO)C2=CC=C(C=C2)Cl)N)C3=NC=NC4=C3C=CN4 [Capivasertib] (first compound max 1 µM, 7x7, partner max 3 µM) | -0.0418 | -0.0469 | 1 | 0.163 | 0.198 | 0.111 | 0.366 | 0.494 | 0.653 | 0.359 | 0.648 | 0.289 | 0.115 | 0.0704 | 0.371 | 0.958 | 1 | 0.163 | 0.328 | 0.935 |
| CC1(C)CCC(CN2CCN(c3ccc(C(=O)NS(=O)(=O)c4ccc(NCC5CCOCC5)c([N+](=O)[O-])c4)c(Oc4cnc5[nH]ccc5c4)c3)CC2)=C(c2ccc(Cl)cc2)C1 [Venetoclax] + C=CCn1c(=O)c2cnc(Nc3ccc(N4CCN(C)CC4)cc3)nc2n1-c1cccc(C(C)(C)O)n1 [AZD1775] (first compound max 1 µM, partner max 1 µM) | -0.065 | 0.0364 | 1 | 0.341 | 0.574 | 0.787 | 0.512 | 0.475 | 0.446 | 0.76 | 0.846 | 0.223 | 0.578 | 0.372 | 0.964 | 1 | 1 | 0.891 | 0.93 | 1 |
| CC1(C)CCC(CN2CCN(c3ccc(C(=O)NS(=O)(=O)c4ccc(NCC5CCOCC5)c([N+](=O)[O-])c4)c(Oc4cnc5[nH]ccc5c4)c3)CC2)=C(c2ccc(Cl)cc2)C1 [Venetoclax] + CCN(CCO)CCCOc1ccc2c(Nc3cc(CC(=O)Nc4cccc(F)c4)[nH]n3)ncnc2c1 [AZD2811] (first compound max 1 µM, 7x7, partner max 1 µM) | -0.0236 | 0.0704 | 1 | 0.121 | 0.126 | 0.346 | 0.285 | 0.593 | 0.399 | 0.221 | 0.678 | 0.887 | 0.268 | 0.702 | 0.594 | 1 | 1 | 0.531 | 0.312 | 0.991 |
| CC1(C)CCC(CN2CCN(c3ccc(C(=O)NS(=O)(=O)c4ccc(NCC5CCOCC5)c([N+](=O)[O-])c4)c(Oc4cnc5[nH]ccc5c4)c3)CC2)=C(c2ccc(Cl)cc2)C1 [Venetoclax] + CN(C)CCCOc1ccc(-c2ccc3ncc4c(c3c2)n(C2CCOCC2)c(=O)n4C)cn1 [AZD0156] (first compound max 1 µM, 7x7, partner max 1 µM) | -0.0378 | -0.0259 | 1 | 0.205 | 0.113 | 0.199 | 0.3 | 0.135 | 0.227 | 0.434 | 0.654 | 0.145 | 0.214 | 0.189 | 0.339 | 0.901 | 1 | 0.27 | 0.259 | 0.947 |
| CC1(C)CCC(CN2CCN(c3ccc(C(=O)NS(=O)(=O)c4ccc(NCC5CCOCC5)c([N+](=O)[O-])c4)c(Oc4cnc5[nH]ccc5c4)c3)CC2)=C(c2ccc(Cl)cc2)C1 [Venetoclax] + COc1cc(Nc2ncc3c(n2)-c2ccc(Cl)cc2C(c2c(F)cccc2OC)=NC3)ccc1C(=O)O [Alisertib] (first compound max 1 µM, 7x7, partner max 10 µM) | -0.0285 | 0.0354 | 1 | 0.365 | 0.113 | 0.584 | 0.248 | 0.588 | 0.9 | 0.547 | 0.66 | 0.809 | 0.567 | 0.791 | 0.934 | 1 | 1 | 0.778 | 0.741 | 0.965 |

Reference: the supplement of paper PMC11061612
